Test results from ChEMBL document CHEMBL1149882, “Sesterterpenoids from the sponge Sarcotragus sp” (J Nat Prod, 2008).
≈ marks a conversion by molar mass, not a printed value.

Legend:
Escherichia coli = experiment: Antimicrobial activity against Escherichia coli ATCC 11775; type: functional
K562 = experiment: Cytotoxicity against human K562 cells by MTT assay; type: functional; details: read-out: LC50 (the source's name)
Staphylococcus aureus [1] = experiment: Antimicrobial activity against methicillin-resistant Staphylococcus aureus ATCC 700788; type: functional
Staphylococcus aureus [2] = experiment: Antimicrobial activity against methicillin-resistant Staphylococcus aureus ATCC 700787; type: functional
Isocitrate lyase = Isocitrate lyase (Candida albicans, UniProt Q9P8Q7); experiment: Inhibition of Candida albicans isocitrate lyase
Sequence of Isocitrate lyase (Q9P8Q7 whole entry): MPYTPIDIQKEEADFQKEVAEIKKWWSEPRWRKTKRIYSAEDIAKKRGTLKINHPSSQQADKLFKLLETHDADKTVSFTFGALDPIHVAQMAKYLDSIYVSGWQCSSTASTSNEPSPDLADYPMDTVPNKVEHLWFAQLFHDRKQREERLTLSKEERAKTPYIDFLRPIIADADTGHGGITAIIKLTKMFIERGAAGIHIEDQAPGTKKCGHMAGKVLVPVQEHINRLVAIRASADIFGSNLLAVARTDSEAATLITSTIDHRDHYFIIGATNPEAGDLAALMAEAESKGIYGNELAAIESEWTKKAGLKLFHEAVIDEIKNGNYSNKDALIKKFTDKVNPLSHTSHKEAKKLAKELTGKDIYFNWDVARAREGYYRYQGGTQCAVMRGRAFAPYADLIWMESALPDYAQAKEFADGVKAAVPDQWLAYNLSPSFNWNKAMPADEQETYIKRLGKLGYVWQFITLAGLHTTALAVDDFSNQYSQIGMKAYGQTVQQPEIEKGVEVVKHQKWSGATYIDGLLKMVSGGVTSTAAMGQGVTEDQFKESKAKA

Bacillus subtilis = experiment: Antimicrobial activity against Bacillus subtilis ATCC 6633; type: functional
Staphylococcus aureus [3] = experiment: Antimicrobial activity against methicillin-resistant Staphylococcus aureus ATCC 43300; type: functional
Proteus vulgaris = experiment: Antimicrobial activity against Proteus vulgaris ATCC 3851; type: functional
Micrococcus luteus = experiment: Antimicrobial activity against Micrococcus luteus IFC12708; type: functional
Salmonella typhimurium = experiment: Antimicrobial activity against Salmonella Typhimurium ATCC 14028; type: functional, Salmonella enterica subsp. enterica serovar Typhimurium; details: Salmonella enterica
Staphylococcus aureus [4] = experiment: Antimicrobial activity against Staphylococcus aureus ATCC 65389; type: functional

SMILES | MIC (Escherichia coli) [µg/mL] | CC50 (K562) [µg/mL] | MIC (Staphylococcus aureus [1]) [µg/mL] | MIC (Staphylococcus aureus [2]) [µg/mL] | IC50 (Isocitrate lyase) [µM] | MIC (Bacillus subtilis) [µg/mL] | MIC (Staphylococcus aureus [3]) [µg/mL] | MIC (Proteus vulgaris) [µg/mL] | MIC (Micrococcus luteus) [µg/mL] | MIC (Salmonella typhimurium) [µg/mL] | MIC (Staphylococcus aureus [4]) [µg/mL]
COC(=O)C(C)(O)[C@](O)(C[C@H](C)CCC/C(C)=C/CC/C(C)=C/CCc1ccoc1)C(=O)OC (stereo not given in full) | > 100 | 20 (≈ 41.8 µM) | > 100 | > 100 | > 418 | > 100 | > 100 | > 100 | 100 (≈ 209 µM) | > 100 | > 100
COC(=O)C(C)(O)[C@](O)(C[C@H](C)CCC/C(C)=C/CC/C(C)=C/CCC1=CCN(CC(=O)O)C1=O)C(=O)OC (stereo not given in full) | > 100 | > 100 | > 100 | > 100 | > 363 | > 100 | > 100 | > 100 | > 100 | > 100 | > 100
CC1=C(O)/C(=C/[C@H](C)CCC/C(C)=C/CC/C(C)=C/CCc2ccoc2)OC1=O | > 100 | 39 (≈ 97.9 µM) | 50 (≈ 125 µM) | 50 (≈ 125 µM) | 81.5 | 6.25 (≈ 15.7 µM) | 50 (≈ 125 µM) | 12.5 (≈ 31.4 µM) | 12.5 (≈ 31.4 µM) | 25 (≈ 62.7 µM) | 12.5 (≈ 31.4 µM)
CC1=C(O)/C(=C/[C@H](C)CC/C=C(/C)CC/C=C(/C)CCCc2ccoc2)OC1=O | > 100 | 62 (≈ 156 µM) | 12.5 (≈ 31.4 µM) | 6.25 (≈ 15.7 µM) | 81.5 | 3.12 (≈ 7.84 µM) | 6.25 (≈ 15.7 µM) | 6.25 (≈ 15.7 µM) | 3.12 (≈ 7.84 µM) | 6.25 (≈ 15.7 µM) | 3.12 (≈ 7.84 µM)
CC1=C(O)/C(=C/[C@H](C)CCC/C(C)=C/CC/C(C)=C/CCC2=CC(O)OC2=O)OC1=O (stereo not given in full) | > 100 | > 100 | > 100 | > 100 | 29 | > 100 | > 100 | > 100 | 50 (≈ 116 µM) | > 100 | > 100
COC(=O)C(C)(O)[C@@](O)(C[C@H](C)CC/C=C(/C)CC/C=C(/C)CCCc1ccoc1)C(=O)OC (stereo not given in full) | > 100 | 46 (≈ 96.1 µM) | > 100 | > 100 | 253 | > 100 | > 100 | > 100 | 50 (≈ 104 µM) | > 100 | > 100
COC(=O)C(C)(O)[C@](O)(C[C@H](C)CC/C=C(/C)CC/C=C(/C)CCCc1ccoc1)C(=O)OC (stereo not given in full) | > 100 | 34 (≈ 71 µM) | > 100 | > 100 | 188 | > 100 | > 100 | > 100 | > 100 | > 100 | > 100
COC(=O)C(C)(O)[C@](O)(C[C@H](C)CC/C=C(/C)CC/C=C(/C)CCCC1=CCN(CC(=O)O)C1=O)C(=O)OC (stereo not given in full) | > 100 | > 100 | > 100 | > 100 | 358 | > 100 | > 100 | > 100 | > 100 | > 100 | > 100
CC1=C(O)/C(=C/[C@H](C)CCC/C(C)=C/CCC(C)(O)CCCc2ccoc2)OC1=O (stereo not given in full) | > 100 | > 100 | > 100 | > 100 | 55.7 | > 100 | 100 (≈ 240 µM) | > 100 | 100 (≈ 240 µM) | > 100 | > 100
COC1C=C(CC/C=C(\C)CC/C=C(\C)CCC[C@@H](C)/C=C2\OC(=O)C(C)=C2O)C(OC)O1 (stereo not given in full) | > 100 | 80 (≈ 174 µM) | 100 (≈ 217 µM) | 50 (≈ 109 µM) | 91.4 | 50 (≈ 109 µM) | 50 (≈ 109 µM) | 100 (≈ 217 µM) | 50 (≈ 109 µM) | > 100 | 100 (≈ 217 µM)
C/C(=C\CCc1ccoc1)CC/C=C(\C)CCC[C@@H](C)CC(=O)O | > 100 | > 100 | > 100 | 100 (≈ 301 µM) | > 602 | > 100 | 25 (≈ 75.2 µM) | 50 (≈ 150 µM) | 12.5 (≈ 37.6 µM) | 50 (≈ 150 µM) | 100 (≈ 301 µM)
C/C(=C/CC[C@@H](C)CC(=O)O)CC/C=C(/C)CCCc1ccoc1 | > 100 | > 100 | 25 (≈ 75.2 µM) | 25 (≈ 75.2 µM) | 241 | 25 (≈ 75.2 µM) | 12.5 (≈ 37.6 µM) | 25 (≈ 75.2 µM) | 6.25 (≈ 18.8 µM) | 12.5 (≈ 37.6 µM) | 25 (≈ 75.2 µM)
C/C(=C/CC[C@@H](C)CC(=O)O)CC/C=C(/C)CCCC1=CC(=O)OC1=O | > 100 | > 100 | > 100 | > 100 | 54.9 | > 100 | > 100 | > 100 | 100 (≈ 276 µM) | > 100 | > 100
CC1=C(O)/C(=C/[C@H](C)CC/C=C(/C)CC/C=C(/C)CCCC2=CC(=O)OC2O)OC1=O (stereo not given in full) | > 100 | > 100 | > 100 | 100 (≈ 232 µM) | 91.5 | > 100 | 100 (≈ 232 µM) | > 100 | 50 (≈ 116 µM) | > 100 | > 100
COC1C=C(CCC/C(C)=C\CC/C(C)=C\CC[C@@H](C)/C=C2\OC(=O)C(C)=C2O)C(OC)O1 (stereo not given in full) | > 100 | 83 (≈ 180 µM) | 100 (≈ 217 µM) | 100 (≈ 217 µM) | 95.1 | 50 (≈ 109 µM) | 100 (≈ 217 µM) | > 100 | 50 (≈ 109 µM) | > 100 | 100 (≈ 217 µM)
CC1=C(O)/C(=C/[C@H](C)CC/C=C(/C)CC/C=C(/C)CCCC2=CC(O)OC2=O)OC1=O (stereo not given in full) | > 100 | > 100 | > 100 | > 100 | – | > 100 | > 100 | > 100 | 100 (≈ 232 µM) | > 100 | > 100
CC1(C)S[C@@H]2[C@H](NC(=O)[C@H](N)c3ccccc3)C(=O)N2[C@H]1C(=O)O [AMPICILLIN] | 1.56 (≈ 4.47 µM) | – | – | – | – | 3.12 (≈ 8.94 µM) | – | 3.12 (≈ 8.94 µM) | 12.5 (≈ 35.8 µM) | 1.56 (≈ 4.47 µM) | 1.56 (≈ 4.47 µM)
C=C(CC(=O)O)C(=O)O [ITACONATE] | – | – | – | – | 37.7 | – | – | – | – | – | –
Cc1onc(-c2ccccc2)c1C(=O)N[C@@H]1C(=O)N2[C@@H]1SC(C)(C)[C@@H]2C(=O)O [OXACILLIN] | – | – | 25 (≈ 62.3 µM) | 50 (≈ 125 µM) | – | – | 25 (≈ 62.3 µM) | – | – | – | –
